Source: patent publication EP4685153A1 (priority 2023, dated 2024)
Residues, ends and D or L forms follow the SMILES beside them. *: point of attachment. Succinyl(4-O-cholesteryl) = CC(C)CCC[C@@H](C)[C@H]1CC[C@H]2[C@@H]3CC=C4C[C@@H](OC(=O)CCC(=O)*)CC[C@]4(C)[C@H]3CC[C@]12C

Columns and labels:
[1] = In vitro cytotoxicity (CCK-8), TZM-bl cells; type: cell-based; conditions: human, CCK-8, 48 hours
Protocol: (§1) The in vitro cytotoxicity was detected by using a CCK-8 cell proliferation/toxicity assay kit (manufacturer: Abbkine, Cat. No.: KTC 011001). […] By using GraphPad Prism software, the inhibition rate curve was fitted and the half-maximal cytotoxic concentration (CC50) of the drug was calculated.

[2] = In vitro cytotoxicity (CCK-8), MT-4 cells; type: cell-based; conditions: human, CCK-8, 48 hours
Protocol: as §1

[3] = In vitro cytotoxicity (CCK-8), MDCK cells; type: cell-based; conditions: dog, CCK-8, 48 hours
Protocol: as §1

[4] = In vitro cytotoxicity (CCK-8), Huh-7 cells; type: cell-based; conditions: human, CCK-8, 48 hours
Protocol: as §1

[5] = In vitro cytotoxicity (CCK-8), Hep-2 cells; type: cell-based; conditions: human, CCK-8, 48 hours
Protocol: as §1

[6] = In vitro cytotoxicity (CCK-8), HEK293T cells; type: cell-based; conditions: human, CCK-8, 48 hours
Protocol: as §1

[7] = In vitro cytotoxicity (CCK-8), 293T/ACE2 cells; type: cell-based; conditions: human, CCK-8, 48 hours
Protocol: as §1

seven test cells = test: In vitro cytotoxicity (CCK-8), average over seven test cells; type: cell-based; conditions: CC50/IC50
Protocol: as §1

[8] = Circular dichroism of lipopeptide alone; type: physicochemical; conditions: CD, 10 µM in PBS pH 7.2
[9] = system: HIV-1 strain NL4-3 pseudovirus; conditions: strain NL4-3 pseudovirus
[10] = system: HIV-1 strain JRFL pseudovirus; conditions: strain JRFL pseudovirus
[11] = system: HIV-1 strain SG3.1 living virus; conditions: for inhibitory activity higher than that of the T20, SG3.1: TZM-bl cells, versus T20
[12] = system: replicative HIV-1 strain JR-CSF; conditions: for inhibitory activity higher than the T20, JR-CSF: TZM-bl cells, versus T20; for IC50: replicative strain JR-CSF, 48 h
[13] = system: representative pandemic HIV-1 strain pseudoviruses; conditions: for IC50: representative pandemic strain pseudoviruses, 48 h; for inhibitory activity against 12 pseudoviruses higher than that of the T20: versus T20
[14] = system: T20-resistant mutant strains (HIV-1 strain NL4-3); conditions: for IC50: T20-resistant mutant strains ( strain NL4-3, 48 h); for inhibitory activity against 12 drug-resistant mutant strains higher than that of the LP-98: versus LP-98
MERS-CoV = conditions: 48 h
EBOV = conditions: 48 h
MARV = conditions: 48 h
H7N9 = conditions: 48 h
RABV = conditions: 48 h
VSV = conditions: 48 h
[15] = system: protease K, trypsin, or α-chymotrypsin
[16] = system: HIV-1 envelope protein (Env); test: Env-mediated cell-cell fusion inhibition (DSP reporter system); conditions: for IC50: read-out: average IC50 value, membrane fusion of 12 viruses, average over Env of 12 representative pandemic HIV-1 strains; for inhibitory activity against membrane fusions of 12 viruses higher than that of the T20: versus T20
N44 = N44 (Human immunodeficiency virus type 1 group M subtype B, UniProt P04578); test: Circular dichroism of lipopeptide complex with target sequence N44; conditions: CD; for Tm value of the mixture with N44: [θ]222, 20-98 °C at 2 °C/min; for α-helix content of the mixture with N44: lipopeptide and N44 each 10 µM in PBS pH 7.2
[17] = Temperature stability experiment (antiviral activity after storage); conditions: 300 µM aqueous solution, room temperature or 37 °C, various time periods; NL4-3 pseudovirus, TZM-bl cells
[18] = Human serum stability experiment (antiviral activity after incubation); conditions: 20% human serum, 37 °C, 0 to 240 minutes; NL4-3 pseudovirus, TZM-bl cells

N44, sequence (P04578 538-581): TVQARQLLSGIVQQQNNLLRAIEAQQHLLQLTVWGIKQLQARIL

CC[C@H](C)[C@H](NC(=O)[C@H](CCCCN)NC(=O)[C@H](CCCCN)NC(=O)[C@H](CCC(=O)O)NC(=O)[C@H](CC(C)C)NC(=O)[C@H](CCC(=O)O)NC(=O)[C@H](CCC(=O)O)NC(=O)[C@H](CC(C)C)NC(=O)[C@H](CCC(=O)O)NC(=O)[C@H](CCCCN)NC(=O)[C@H](CCC(=O)O)NC(=O)[C@H](Cc1ccc(O)cc1)NC(=O)[C@H](CCC(=O)O)NC(=O)[C@H](CCC(=O)O)NC(=O)[C@H](Cc1ccc(O)cc1)NC(=O)[C@H](CCC(=O)O)NC(C)=O)C(=O)N[C@@H](CCC(=O)O)C(=O)N[C@@H](CCC(=O)O)C(=O)N[C@@H](CC(C)C)C(=O)N[C@@H](CC(C)C)C(=O)N[C@@H](CCCCN)C(=O)N[C@@H](CCCCN)C(=O)N[C@@H](C)C(=O)N[C@@H](CCC(=O)O)C(=O)N[C@@H](CCC(=O)O)C(=O)N[C@@H](CCC(N)=O)C(=O)N[C@@H](CCC(N)=O)C(=O)N[C@@H](CCCCN)C(=O)N[C@@H](CCCCN)C(=O)N[C@@H](CC(N)=O)C(=O)N[C@@H](CCC(=O)O)C(=O)N[C@@H](C)C(=O)N[C@@H](C)C(=O)N[C@@H](C)C(=O)N[C@@H](CCCCN)C(=O)N[C@@H](CCCCNC(=O)CCC(=O)O[C@H]1CC[C@@]2(C)C(=CC[C@H]3[C@@H]4CC[C@H]([C@H](C)CCCC(C)C)[C@@]4(C)CC[C@@H]32)C1)C(N)=O [LP-127] (Ac-EYEEYEKELEELEKKIEELLKKAEEQQKKNEAAAKK(Succinyl(4-O-cholesteryl))-NH2)
CC50 at 48 h [1]: 10200 nM | CC50 at 48 h [2]: 15400 nM | CC50 at 48 h [3]: 12900 nM | CC50 at 48 h [4]: 31300 nM | CC50 at 48 h [5]: 16500 nM | CC50 at 48 h [6]: 9070 nM | CC50 at 48 h [7]: 14400 nM | therapeutic selective index (SI) (seven test cells): very high | α-helix content, lipopeptide alone [8]: 57% | IC50 [9]: 0.00501 nM | IC50 [10]: 0.00563 nM | inhibitory activity higher than that of the T20, SG3.1 [11]: 1427 folds | inhibitory activity higher than the T20, JR-CSF [12]: 539 folds | IC50 [12]: 0.0104 nM | IC50 [13]: 0.00489 nM | inhibitory activity against 12 pseudoviruses higher than that of the T20 [13]: 4101 folds | IC50 [14]: 0.00702 nM | inhibitory activity against 12 drug-resistant mutant strains higher than that of the LP-98 [14]: 379 folds | IC50 (MERS-CoV): 383 nM | IC50 (EBOV): 61.7 nM | IC50 (MARV): 144 nM | IC50 (H7N9): 415 nM | IC50 (RABV): 1730 nM | IC50 (VSV): 1510 nM | change in antiviral activity after treatment with three proteases [15]: no significant change | IC50 [16]: 0.00497 nM | inhibitory activity against membrane fusions of 12 viruses higher than that of the T20 [16]: 2256 folds | Tm value of the mixture with N44 (N44): 92 °C | α-helix content of the mixture with N44 (N44): 68% | change in antiviral activity after treatment at different temperatures [17]: no significant change | change in antiviral activity after treatment with human serum [18]: no significant change

CC[C@H](C)[C@H](NC(=O)[C@H](CCCCN)NC(=O)[C@H](CCCCN)NC(=O)[C@H](CCC(=O)O)NC(=O)[C@H](CC(C)C)NC(=O)[C@H](CCC(=O)O)NC(=O)[C@H](CCC(=O)O)NC(=O)[C@H](CC(C)C)NC(=O)[C@H](CCC(=O)O)NC(=O)[C@H](CCCCN)NC(=O)[C@H](CCC(=O)O)NC(=O)[C@H](Cc1ccc(O)cc1)NC(=O)[C@H](CCC(=O)O)NC(C)=O)C(=O)N[C@@H](CCC(=O)O)C(=O)N[C@@H](CCC(=O)O)C(=O)N[C@@H](CC(C)C)C(=O)N[C@@H](CC(C)C)C(=O)N[C@@H](CCCCN)C(=O)N[C@@H](CCCCN)C(=O)N[C@@H](C)C(=O)N[C@@H](CCC(=O)O)C(=O)N[C@@H](CCC(=O)O)C(=O)N[C@@H](CCC(N)=O)C(=O)N[C@@H](CCC(N)=O)C(=O)N[C@@H](CCCCN)C(=O)N[C@@H](CCCCN)C(=O)N[C@@H](CC(N)=O)C(=O)N[C@@H](CCC(=O)O)C(=O)N[C@@H](C)C(=O)N[C@@H](C)C(=O)N[C@@H](C)C(=O)N[C@@H](CCCCN)C(=O)N[C@@H](CCCCNC(=O)CCC(=O)O[C@H]1CC[C@@]2(C)C(=CC[C@H]3[C@@H]4CC[C@H]([C@H](C)CCCC(C)C)[C@@]4(C)CC[C@@H]32)C1)C(N)=O [LP-128] (Ac-EYEKELEELEKKIEELLKKAEEQQKKNEAAAKK(Succinyl(4-O-cholesteryl))-NH2)
CC50 at 48 h [1]: 7490 nM | CC50 at 48 h [2]: 28200 nM | CC50 at 48 h [3]: 18000 nM | CC50 at 48 h [4]: 40300 nM | CC50 at 48 h [5]: 12500 nM | CC50 at 48 h [6]: 8720 nM | CC50 at 48 h [7]: 24100 nM | therapeutic selective index (SI) (seven test cells): very high | α-helix content, lipopeptide alone [8]: 66% | IC50 [9]: 0.00327 nM | IC50 [10]: 0.00497 nM | inhibitory activity higher than that of the T20, SG3.1 [11]: 4282 folds | IC50 ([11]; strain SG3.1 living virus): 0.00175 nM | inhibitory activity higher than the T20, JR-CSF [12]: 750 folds | IC50 [12]: 0.00747 nM | IC50 [13]: 0.00319 nM | inhibitory activity against 12 pseudoviruses higher than that of the T20 [13]: 6286 folds | IC50 [14]: 0.00913 nM | inhibitory activity against 12 drug-resistant mutant strains higher than that of the LP-98 [14]: 292 folds | IC50 (MERS-CoV): 456 nM | IC50 (EBOV): 274 nM | IC50 (MARV): 534 nM | IC50 (H7N9): 353 nM | IC50 (RABV): 1130 nM | IC50 (VSV): 1490 nM | change in antiviral activity after treatment with three proteases [15]: no significant change | IC50 [16]: 0.00402 nM | inhibitory activity against membrane fusions of 12 viruses higher than that of the T20 [16]: 2790 folds | Tm value of the mixture with N44 (N44): 90 °C | α-helix content of the mixture with N44 (N44): 84% | change in antiviral activity after treatment at different temperatures [17]: no significant change | change in antiviral activity after treatment with human serum [18]: no significant change
